Assay results taken from ChEMBL document CHEMBL5584360, “Undescribed Amaryllidaceae Alkaloids from Zephyranthes citrina and Their Cytotoxicity” (J Nat Prod, 2024).
In brackets after ≈: the same amount, converted by molar mass.

Experiments:
[1] = Selectivity index, ratio of cytotoxic effect against human MRC5 cells to cytotoxic effect against human Jurkat cells; assay type: toxicity, cell-based; settings: MRC5 cells versus Jurkat cells, read-out: Selectivity Index
[2] = Selectivity index, ratio of cytotoxic effect against human MRC5 cells to cytotoxic effect against human MOLT-4 cells
[3] = Selectivity index, ratio of cytotoxic effect against human MRC5 cells to cytotoxic effect against human A549 cells; assay type: toxicity, cell-based; settings: MRC5 cells versus A549 cells, read-out: Selectivity Index
[4] = Selectivity index, ratio of cytotoxic effect against human MRC5 cells to cytotoxic effect against human HT-29 cells; assay type: toxicity, cell-based; settings: MRC5 cells versus HT-29 cells, read-out: Selectivity Index
[5] = Selectivity index, ratio of cytotoxic effect against human MRC5 cells to cytotoxic effect against human PANC-1 cells
[6] = Selectivity index, ratio of cytotoxic effect against human MRC5 cells to cytotoxic effect against human A2780 cells; assay type: toxicity, cell-based; settings: MRC5 cells versus A2780 cells, read-out: Selectivity Index
[7] = Selectivity index, ratio of cytotoxic effect against human MRC5 cells to cytotoxic effect against human HeLa cells; assay type: toxicity, cell-based; settings: MRC5 cells versus HeLa cells, read-out: Selectivity Index
[8] = Selectivity index, ratio of cytotoxic effect against human MRC5 cells to cytotoxic effect against human MCF7 cells; assay type: toxicity, cell-based; settings: MRC5 cells versus MCF7 cells, read-out: Selectivity Index
[9] = Selectivity index, ratio of cytotoxic effect against human MRC5 cells to cytotoxic effect against human SAOS-2 cells
KB = test: Cytotoxicity against human KB cells; assay type: functional; settings: read-out: ED50 (the source's name)
A549 = test: Cytotoxicity against human A549 cells measured after 72 hrs by MTT assay; assay type: functional, cell-based; settings: A549, 72 h
Acetylcholinesterase = Acetylcholinesterase (Homo sapiens, UniProt P22303); test: Inhibition of human AChE by Ellman's method
Cholinesterase = Cholinesterase (Homo sapiens, UniProt P06276); test: Inhibition of human BChE by Ellman's method
Chain of Cholinesterase (P06276 whole entry): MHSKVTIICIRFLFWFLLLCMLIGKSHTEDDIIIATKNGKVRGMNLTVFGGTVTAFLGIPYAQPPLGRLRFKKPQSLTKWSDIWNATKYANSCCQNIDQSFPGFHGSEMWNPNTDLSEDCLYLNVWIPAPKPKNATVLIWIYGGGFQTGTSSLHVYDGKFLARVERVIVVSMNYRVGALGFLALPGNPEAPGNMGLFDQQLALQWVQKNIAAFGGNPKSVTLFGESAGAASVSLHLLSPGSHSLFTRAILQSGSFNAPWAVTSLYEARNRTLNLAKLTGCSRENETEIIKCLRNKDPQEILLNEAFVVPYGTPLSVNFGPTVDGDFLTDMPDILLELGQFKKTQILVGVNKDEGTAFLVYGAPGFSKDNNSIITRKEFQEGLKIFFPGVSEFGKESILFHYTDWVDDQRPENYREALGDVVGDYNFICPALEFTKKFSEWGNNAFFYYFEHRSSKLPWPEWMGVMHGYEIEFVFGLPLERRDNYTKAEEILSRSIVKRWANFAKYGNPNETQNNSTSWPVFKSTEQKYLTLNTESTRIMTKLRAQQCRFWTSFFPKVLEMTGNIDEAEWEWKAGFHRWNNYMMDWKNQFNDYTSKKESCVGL

Chain of Acetylcholinesterase (P22303 whole entry): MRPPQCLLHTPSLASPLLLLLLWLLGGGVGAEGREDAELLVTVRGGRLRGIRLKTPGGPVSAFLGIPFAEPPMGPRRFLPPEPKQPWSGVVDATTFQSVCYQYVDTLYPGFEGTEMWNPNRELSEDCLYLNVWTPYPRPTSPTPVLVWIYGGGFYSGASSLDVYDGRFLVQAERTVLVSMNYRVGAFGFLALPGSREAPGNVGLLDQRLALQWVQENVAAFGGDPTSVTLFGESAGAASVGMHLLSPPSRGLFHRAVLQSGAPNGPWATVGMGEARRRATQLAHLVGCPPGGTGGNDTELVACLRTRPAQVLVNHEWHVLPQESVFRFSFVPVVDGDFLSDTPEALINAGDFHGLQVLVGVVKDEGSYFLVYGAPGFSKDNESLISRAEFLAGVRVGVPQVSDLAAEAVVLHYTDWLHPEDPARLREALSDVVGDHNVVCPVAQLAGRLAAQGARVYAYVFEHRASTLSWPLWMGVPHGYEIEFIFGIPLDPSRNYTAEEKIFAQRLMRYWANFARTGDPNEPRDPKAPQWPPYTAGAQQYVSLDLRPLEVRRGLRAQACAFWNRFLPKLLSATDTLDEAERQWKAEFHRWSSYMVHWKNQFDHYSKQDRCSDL

SMILES	selectivity ratio [1]	Selectivity Index [2]	selectivity ratio [3]	selectivity ratio [4]	Selectivity Index [5]	selectivity ratio [6]	selectivity ratio [7]	selectivity ratio [8]	Selectivity Index [9]	EC50 (KB) [µg/mL]	IC50 (A549) [µg/mL]	IC50 (Acetylcholinesterase) [µM]	IC50 (Cholinesterase) [nM]
CO[C@@H]1C=C[C@@]23c4cc5c(cc4CN(C[C@@H]2O)[C@H]3C1)OCO5 [(+)-HAEMANTHAMINE]	0.05	0.05	0.05	0.05	0.05	0.05	0.05	0.05	0.05	–	–	–	–
COc1cc2c(cc1OC)[C@@]13C=CC(O)C[C@@H]1N(CC3)C2 (stereo partly specified)	–	–	–	–	–	–	–	–	–	0.51 (≈ 1.77 µM)	–	–	–
O[C@H]1[C@H]2c3cc4c(cc3CN3CCC(=C[C@@H]1O)[C@H]23)OCO4 [LYCORINE]	0.62	0.62	0.62	0.62	0.62	0.62	0.62	0.62	0.62	–	–	–	–
CO[C@@H]1C=C[C@@]23c4cc5c(cc4[C@H](O)N(C[C@@H]2O)[C@H]3C1)OCO5	0.14	0.14	0.14	0.14	0.14	0.14	0.14	0.14	0.14	–	–	–	–
CO[C@H]1C=C[C@@]23c4cc5c(cc4CN(C[C@@H]2O)[C@H]3C1)OCO5	–	–	–	–	–	–	–	–	–	–	15.9 (≈ 52.8 µM)	–	–
COc1cc(-c2cccc3c2N(C)CC3)c(CN2CC[C@@]34C=C[C@H](O)C[C@@H]3Oc3c(OC)ccc(c34)C2)c(OC)c1OC	–	–	–	–	–	–	–	–	–	–	–	18.7	1340
